Several values for one entry are separate records, joined by “and”; a condition that tells them apart may be missing. Identical values can stand only once.
Experiments:
ACSS2 [1] = biological target: T1, ACSS2 (Homo sapiens, UniProt Q9NR19); test: cell-based
Protocol: (§1) ACSS2 Cellular Activity Assay (Cellular IC50)
(§2) The cellular activity of ACSS2 was based on tracing the incorporation of carbons from ^13C-Acetate into fatty-acids.
(§3) BT474/MDA-MB-468 cells growing in DMEM+25 mM D-glucose+1 mM sodium pyruvate+10% FBS+2 mM glutamine were plated in 12-well plates at 0.4×10^6 cells/well. The cells were then incubated at CO2 incubator for 24 hrs at hypoxic conditions (1% O2) before treated with compounds. At day 2, the medium was replaced to DMEM medium containing 15 mM Glucose, 1 mM Pyruvate, 0.65 mM Glutamine, 1% Dialyzed serum, 3.5 ug/ml Biotin, 0.2 mM ^13C-Acetate and various concentrations of the compounds. The cells were incubated for 5 hours at CO2 incubator in hypoxic conditions (1% O2). At the end of the 5 hours' incubation, the cells were washed twice with cold PBS, harvested in 1 ml PBS and transfer into V-shaped HPLC glass vials and centrifuge for 10 min at 600 g at 4 C. The supernatant was removed, and the cells' pellets were stored at −80° C. until taken for saponification.
(§4) The cells pellets were resuspended with 0.5 ml of the 90% Methanol, 10% H2O, 0.3M NaOH mixture and incubated at 80° C. for 60 min. Following the incubation, 50 μl formic acid and 0.4 ml hexane were added and the mixture was vortexed for 2 minutes. The vials were left few minutes for phases separation and then 200 μl of the top hexane phase extracted to a new glass vial. The hexane was dried under nitrogen and reconstituted in 100 μl of Methanol:Acetonitrile 5:3 mixture. The solution transferred to Eppendorf tubes, spun down at 17000 G for 20 min and transferred to LC-MS vials.
(§5) The analysis was performed with Thermo Q Exactive mass spectrometer with HESI probe and Dionex Ultimate 3000 UHPLC system. The separations were performed on Phenomenex Kintex 2.6u XB-C18 100A 150×2.10 mm column by injecting 5 ul of each sample. The chromatography started with a linear gradient from 85% to 100% of organic solvent (Methanol:Acetonitrile 1:1) versus 10 mM Ammonium Acetate buffer pH 4.7 for 3.5 minutes, followed by 4.5 minutes of isocratic 100% organic solvent and then 3 minutes of isocratic initial conditions, at a flow rate of 0.3 ul/min. The MS source conditions that were used: capillary temperature 325° C., sheath flow 25, aux flow 15, spray voltage 3.8 kV, aux temperature 300° C. The data collected from Negative ion mode at resolution of 70000 at Full-MS mode in 75-1000 m/z range.
(§6) The analysis of ^13C acetate incorporation into fatty acids (palmitate, myristate and stearate) performed on TraceFinder 3.2.512.0. The negative control areas and ^13C isotopic theoretical natural abundance were subtracted from the samples areas. Total ^13C incorporation for each fatty-acid (palmitate, myristate and stearate) was calculated and presented as percentage of the total amount.

ACSS2 [2] = biological target: T1, ACSS2; test: cell-based; remark: listed apart in the source
Protocol: as §1, §2, §3, §4, §5, §6

ACSS2 [3] = biological target: T1, ACSS2; test: biochemical
ACSS2 [4] = biological target: T1, ACSS2; test: cell-based; remark: listed apart in the source
Protocol: Testing the inhibitory effect of compounds on the cellular activity of ACSS2 was done by tracing the incorporation of ^13C from ^13C-acetate into fatty-acids in MDA-MB-468 cells under hypoxic conditions of 1% 02. The assay was done for 5 hours in DMEM with 5.5 mM glucose, 1 mM sodium Pyruvate, 0.65 mM Glutamine, 3.5 ug/ml Biotin, 1% dialyzed serum, 0.5 mM 13C-acetate and with different concentrations of the inhibitors. At the end of the incubation, the cells were washed with cold PBS, harvested into glass tubes and undergo saponification. The level of ^13C incorporation into Palmitate was done by LC-MS analysis and the level of inhibition was calculated with PRISM software.

T1 sequence (Q9NR19 whole entry): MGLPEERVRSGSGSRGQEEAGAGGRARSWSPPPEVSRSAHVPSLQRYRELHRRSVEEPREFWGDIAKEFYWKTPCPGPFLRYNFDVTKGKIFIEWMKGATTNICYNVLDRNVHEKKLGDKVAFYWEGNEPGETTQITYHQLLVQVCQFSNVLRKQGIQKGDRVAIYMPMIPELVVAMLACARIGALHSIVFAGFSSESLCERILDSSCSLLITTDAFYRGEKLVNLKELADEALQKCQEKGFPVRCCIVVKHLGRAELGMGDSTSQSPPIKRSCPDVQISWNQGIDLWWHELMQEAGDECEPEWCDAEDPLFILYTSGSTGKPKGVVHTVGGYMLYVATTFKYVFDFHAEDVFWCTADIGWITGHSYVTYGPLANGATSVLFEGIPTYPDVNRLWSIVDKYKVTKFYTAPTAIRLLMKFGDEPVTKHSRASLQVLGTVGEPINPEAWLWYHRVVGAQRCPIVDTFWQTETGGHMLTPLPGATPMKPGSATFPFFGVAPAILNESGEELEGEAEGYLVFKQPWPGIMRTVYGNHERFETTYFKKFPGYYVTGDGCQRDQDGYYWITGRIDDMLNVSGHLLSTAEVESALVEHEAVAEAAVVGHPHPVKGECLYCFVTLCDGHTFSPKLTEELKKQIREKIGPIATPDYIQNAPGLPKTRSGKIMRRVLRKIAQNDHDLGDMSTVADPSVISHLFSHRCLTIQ

CC1=NN(c2ccccc2)C(=O)C1C(=O)Nc1cccc(-c2ccco2)c1 (centres unmarked) [compound 108, N-(3-(furan-2-yl)phenyl)-3-methyl-5-oxo-1-phenyl-4,5-dihydro-1H-pyrazole-4-carboxamide] gave an IC50 (ACSS2 [1]) of under 100 nM, an IC50 (ACSS2 [2]) of under 100 nM and an IC50 (ACSS2 [3]) of 0.01 to 6 nM. It also gave an IC50 (ACSS2 [4]) of 0.5 to 50 nM.

CCc1cccc(NC(=O)C2C(=O)N(c3ccc(OC(C)C)cc3)N=C2C)c1 (centres unmarked) [compound 142, N-(3-ethylphenyl)-1-(4-isopropoxyphenyl)-3-methyl-5-oxo-4,5-dihydro-1H-pyrazole-4-carboxamide] gave an IC50 (ACSS2 [1]) of 100 to 1000 nM, an IC50 (ACSS2 [2]) of 100 to 1000 nM and an IC50 (ACSS2 [3]) of 6 to 100 nM. It also gave an IC50 (ACSS2 [4]) of over 100 nM.

With CC1=NN(c2ccccc2)C(=O)C1C(=O)Nc1cccc(-c2ncc[nH]2)c1 (centres unmarked) [compound 107, N-(3-(1H-imidazol-2-yl)phenyl)-3-methyl-5-oxo-1-phenyl-4,5-dihydro-1H-pyrazole-4-carboxamide] the IC50 (ACSS2 [1]) was ≥ 1000 nM and 100 to 1000 nM, the IC50 (ACSS2 [2]) was 100 to 1000 nM and the IC50 (ACSS2 [3]) was 6 to 100 nM. For the same compound, the IC50 (ACSS2 [4]) was 0.5 to 50 nM.

CC1=NN(c2ccccc2)C(=O)C1C(=O)Nc1cccc(C(C)(F)F)c1 (centres unmarked) [compound 141, N-(3-(1,1-difluoroethyl)phenyl)-3-methyl-5-oxo-1-phenyl-4,5-dihydro-1H-pyrazole-4-carboxamide] showed an IC50 (ACSS2 [1]) of under 100 nM, an IC50 (ACSS2 [2]) of under 100 nM and an IC50 (ACSS2 [3]) of 0.01 to 6 nM. For the same compound, the IC50 (ACSS2 [4]) was 0.5 to 50 nM.

CC1=NN(c2ccccc2)C(=O)C1C(=O)Nc1cccc(C(=O)N(C)C)c1 (centres unmarked) [compound 220, N-(3-(dimethylcarbamoyl)phenyl)-3-methyl-5-oxo-1-phenyl-4,5-dihydro-1H-pyrazole-4-carboxamide] showed an IC50 (ACSS2 [1]) of 100 to 1000 nM, an IC50 (ACSS2 [2]) of under 100 nM and an IC50 (ACSS2 [3]) of 0.01 to 6 nM. The IC50 (ACSS2 [4]) was over 100 nM.

From patent US10851064B2, “ACSS2 inhibitors and methods of use thereof” (METABOMED LTD., priority 2017, dated 2020)
